Experimental data reported in publication PMC7076710, “Synthesis, Identification, and Structure–Activity Relationship Analysis of GATA4 and NKX2-5 Protein–Protein Interaction Modulators” (Journal of Medicinal Chemistry, 2019).
Where two headings read alike, the source gives them in different places. Blank lines part the entries; values can stand above or below the compound they belong to.

Key:
Assay type in all cases: cell-based
[1] = molecular target: T1, GATA4–NKX2-5 transcriptional synergy (Mus musculus, UniProt P42582+Q08369); test: GATA4–NKX2-5 transcriptional synergy luciferase reporter assay (3xNKE reporter, COS-1 cells); conditions: for Synergy (% of control) Mean ± SD: 10 μM, COS-1 cells, 24 h; for activity at 3 µM / activity at 10 µM: COS-1
T1 construct: expressed in transfected cells; host or cells: COS-1

[2] = molecular target: T2, NKX2-5 transcriptional activity (Mus musculus, UniProt P42582); test: NKX2-5 luciferase reporter assay (3xNKE reporter, COS-1 cells); conditions: for activity at 3 µM: COS-1, read-out: NKX.3µM
T2 construct: expressed in transfected cells; host or cells: COS-1

COS-1 cells = test: ATP assay (CellTiter-Glo cell viability); conditions: 24-h exposure; for reduction of cell viability (ATP content): 10 μM
Excerpt: To investigate the toxicity as a potential cause of decreased or increased activity in luciferase reporter gene assays, we tested a set of 40 active compounds in the COS-1 cell line used for the luciferase assays. Concentration-dependent toxic effects were investigated using the lactate dehydrogenase (LDH) assay to detect necrosis and the 3-(4,5-dimethylthiazol-2-yl)-2,5-diphenyltetrazolium bromide (MTT) assay as a measure of cell viability. […] For the data analysis, compounds were classified as toxic (Figures 5 and 7) if they induced a >10% decrease in cell viability in the MTT assay at the concentration of 10 μM. The most toxic compounds (35a, 35d, 54, 58, and 63–65) in the MTT assay all contained a phenyl substituent in the southern part ring, while the ortho-nitrophenyl-derivative 39g and the phenyl-substituted thiophene 47t were nontoxic. Higher flexibility in the central parts of the ethers (35a, 35d) and N-acylated amines (58, 64) might contribute to their toxicity, because less rigid compounds are more likely to have affinity to various biological targets. Such interactions can cause toxicity. To confirm and validate the results from MTT assays, we tested three nontoxic (2, 47s, and 72) and three toxic (1, 35a, and 58) compounds in a cell viability assay measuring intracellular ATP content.
Figure 5 Effects of selected compounds on COS-1 cell viability. (A) Compound-induced necrosis was quantified with the LDH assay after a 24-h compound exposure. The data are presented as cytotoxicity percentage (% of maximal LDH release). (B) Cell viability was analyzed with the MTT assay after a 24-h compound exposure. (A,B) The data are means from 2–3 independent experiments with 3 replicate wells in each and are presented as % of control (vehicle-treated cells). The compounds have been grouped on the basis of the structure of the central part: a, amide; b, ether; c, N-acylated amine; d, amine; and e, imine. (C) The effects of selected compounds on cell viability as determined by ATP content after a 24-h compound exposure. The data are mean + SEM from three independent experiments and are presented as % of vehicle-treated cells.
A selected set of compounds were tested also in the ATP assay by using CellTiter-Glo Luminescent Cell Viability assay (Promega). Subculturing and treatment of COS-1 cells were otherwise performed similar to that in the MTT test, but the final volume of treatment was 200 μL per well. Doxorubicin was used as a positive control in the assay. After treatment, the plates were equilibrated at room temperature for 30 min, after which the media was removed and cells were washed with 100 μL of PBS. Next, 50 μL of fresh media and 50 μL of mixed CellTiter Glo Reagent were added to the plate. The contents of the plates were mixed for 2 min, and incubated at room temperature for 15 min. The luminescence was measured with VarioskanTM LUX Multimode Plate Reader (Thermo Fisher Scientific, Waltham, MA) using SkanItTM Software 5.0.

[3] = 3 µM, luciferase reporter activity, % of control
[4] = 3 µM, luciferase reporter activity relative to control
[5] = 10 µM, luciferase reporter activity relative to control

T2 sequence (P42582 whole entry): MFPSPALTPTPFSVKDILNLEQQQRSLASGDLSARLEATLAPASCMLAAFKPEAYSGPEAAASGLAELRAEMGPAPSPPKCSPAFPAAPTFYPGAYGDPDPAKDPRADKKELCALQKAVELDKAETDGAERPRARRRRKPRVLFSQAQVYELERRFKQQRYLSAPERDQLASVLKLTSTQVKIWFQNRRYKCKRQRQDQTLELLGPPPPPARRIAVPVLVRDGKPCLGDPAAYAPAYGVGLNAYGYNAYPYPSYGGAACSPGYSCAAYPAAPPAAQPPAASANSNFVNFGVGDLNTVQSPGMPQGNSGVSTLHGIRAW
T1 sequence (Q08369 whole entry): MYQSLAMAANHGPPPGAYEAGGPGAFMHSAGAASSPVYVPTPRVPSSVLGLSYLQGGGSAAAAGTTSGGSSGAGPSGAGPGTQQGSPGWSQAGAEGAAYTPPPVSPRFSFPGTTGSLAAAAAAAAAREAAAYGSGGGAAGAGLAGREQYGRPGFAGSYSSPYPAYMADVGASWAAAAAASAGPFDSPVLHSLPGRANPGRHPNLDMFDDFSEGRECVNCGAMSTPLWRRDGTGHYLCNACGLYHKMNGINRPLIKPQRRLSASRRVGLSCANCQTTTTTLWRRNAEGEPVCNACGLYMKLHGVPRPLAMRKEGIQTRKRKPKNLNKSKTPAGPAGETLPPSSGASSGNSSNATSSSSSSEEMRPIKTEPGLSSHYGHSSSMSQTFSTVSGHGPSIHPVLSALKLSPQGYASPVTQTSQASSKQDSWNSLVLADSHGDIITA
T1 sequence (P42582 whole entry): as the sequence (P42582 whole entry) above

Compound: Cc1onc(-c2ccccc2)c1C(=O)N(C1=NC(C)CS1)c1ccc(Cl)cc1 (stereo not shown) [Compound 2]
Synergy (% of control) Mean ± SD [1]: 170 % of control | activity at 3 µM [1, 3]: 130% | activity at 10 µM ([1]; 10 µM, luciferase reporter activity, % of control): 166% | activity at 3 µM [2, 3]: 102% | toxicity in the ATP assay (in words) (COS-1 cells): no toxicity

Compound: CCN(CC)c1ccc(NC(=O)c2c(-c3ccccc3)noc2C)cc1 [Compound 1, N-[4-(Diethylamino)phenyl]-5-methyl-3-phenylisoxazole-4-carboxamide]
activity at 3 µM [1, 3]: 73.7% | activity at 3 µM [2, 3]: 76% | reduction of cell viability (ATP content) (COS-1 cells): > 10%

Compound: Cc1onc(-c2ccccc2)c1COc1ccc(C(=O)OCCC#N)cc1 [Compound 35a, 2-Cyanoethyl 4-[(5-Methyl-3-phenylisoxazol-4-yl)methoxy]benzoate]
activity at 3 µM [1, 4]: 27.5% | activity at 3 µM [2, 4]: 39.5% | reduction of cell viability (ATP content) (COS-1 cells): > 10%

Compound: COc1ccc(-c2cc(NC(=O)c3ccc(C(C)(C)C)cc3)n[nH]2)cc1 [Compound 72]
effect on GATA4–NKX2-5 transcriptional synergy (in words) [1]: inhibition potency | activity at 3 µM [1, 4]: 66% | activity at 10 µM [1, 5]: 49.5% | activity at 3 µM [2, 4]: 74.8% | toxicity in the ATP assay (in words) (COS-1 cells): no toxicity

Compound: CCC(=O)N(Cc1ccc(N(CC)CC)cc1)c1c(-c2ccccc2)noc1C [Compound 58]
activity at 10 µM [1, 5]: 22.3% | activity at 3 µM [2, 4]: 73.7% | reduction of cell viability (ATP content) (COS-1 cells): > 10%

The next lines start with results.

activity at 3 µM [1, 4]: 66.9% | activity at 3 µM [2, 4]: 41.8%
Compound: CCN(CC)c1ccc(NC(=O)c2cnsc2)cc1 [Compound 47s]
toxicity in the ATP assay (in words) (COS-1 cells): no toxicity

Synergy.3µM [1, 4]: 45.37 | Synergy (% of control) Mean ± SD [1]: 24 ± 0.9 % of control | Synergy.10µM [1, 5]: 23.55 | NKX.3µM [2, 4]: 33.64 | NKX2-5 (% of control) Mean ± SD ([2]; 10 μM, COS-1 cells, 24 h): 21 ± 0.88 % of control | NKX.10µM [2, 5]: 20.92
Compound: N-[4-(Diethylamino)phenyl]-3-methyl-5-(4-methyl-1,2,3-thiadiazol-5-yl)isoxazole-4-carboxamide [Compound 47c]
